Test results: US20080269213A1, “8-Hydroxyquinoline compounds and methods thereof” (Wyeth, priority 2006, published 2008)
Several values for one entry are separate records, joined by “and”; a condition that tells them apart may be missing. Equal values may be shown once. Read-outs that look alike come from different tables or passages of the source.

Assays:
Agg-1 = target: T1, Agg-1 (Homo sapiens, UniProt O75173); assay: Agg-1 FRET assay; type: biochemical; details: for IC50: read-out: Agg1 IC50; for inhibition at 66.7 µM: % inhibition @ 66.7 μM; for inhibition at 7.4 µM: @ 7400 nM
T1 sequence (O75173 213-837): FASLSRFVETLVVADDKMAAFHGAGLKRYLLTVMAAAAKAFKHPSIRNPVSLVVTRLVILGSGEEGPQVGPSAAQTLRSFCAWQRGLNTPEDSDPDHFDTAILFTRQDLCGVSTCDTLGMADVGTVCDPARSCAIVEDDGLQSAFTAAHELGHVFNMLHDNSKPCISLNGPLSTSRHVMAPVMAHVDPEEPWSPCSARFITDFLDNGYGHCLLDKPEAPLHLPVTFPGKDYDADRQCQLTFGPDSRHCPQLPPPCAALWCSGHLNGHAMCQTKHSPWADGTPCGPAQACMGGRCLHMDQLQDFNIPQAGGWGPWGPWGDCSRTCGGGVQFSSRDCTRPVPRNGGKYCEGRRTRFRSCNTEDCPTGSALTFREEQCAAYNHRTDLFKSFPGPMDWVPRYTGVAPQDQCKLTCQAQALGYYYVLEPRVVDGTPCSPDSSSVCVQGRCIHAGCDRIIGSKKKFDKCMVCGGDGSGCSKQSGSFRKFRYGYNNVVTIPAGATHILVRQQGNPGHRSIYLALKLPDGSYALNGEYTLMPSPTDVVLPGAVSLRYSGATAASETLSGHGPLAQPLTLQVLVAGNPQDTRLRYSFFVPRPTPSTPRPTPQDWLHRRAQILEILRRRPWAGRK
Description: The Agg-1/Agg-2 FRET data for N-[(8-hydroxyquinolin-2-yl)(phenyl)methyl]-2-phenoxyacetamide and 2-{[(phenoxyacetyl)amino](phenyl)methyl}quinolin-8-yl phenoxyacetate is presented in Table 1.

[1] = target: T2, recombinant human Aggrecanase-2 Agg2-Phe628 (Homo sapiens, UniProt Q9UNA0); assay: Aggrecanase 2 in vitro enzyme assay (Agg-2 FRET, quenched fluorescent peptide substrate); type: biochemical; set-up: purified recombinant human Aggrecanase-2 Agg2-Phe628 (MW=41,737); This is a truncated form of full-length human aggrecanase-2; made in house; host or cells: CHO cells; details: for Agg-2 FRET Median PCT INHIB: concentration not given
T2 sequence (Q9UNA0 262-628 limits assumed): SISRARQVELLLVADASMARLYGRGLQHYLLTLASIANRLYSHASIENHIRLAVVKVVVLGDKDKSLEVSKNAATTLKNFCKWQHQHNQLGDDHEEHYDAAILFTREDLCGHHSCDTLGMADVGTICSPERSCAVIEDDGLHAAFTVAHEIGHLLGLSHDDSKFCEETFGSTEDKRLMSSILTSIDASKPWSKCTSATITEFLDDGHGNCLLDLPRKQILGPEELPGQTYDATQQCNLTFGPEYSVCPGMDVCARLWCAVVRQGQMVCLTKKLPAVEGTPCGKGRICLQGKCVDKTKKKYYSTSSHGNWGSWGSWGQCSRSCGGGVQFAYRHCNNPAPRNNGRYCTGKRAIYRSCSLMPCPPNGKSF
Summary of the method: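 Continuous FRET assay with purified truncated human Aggrecanase-2 Agg2-Phe628 (CHO-expressed, 0.5 μg/ml final) and brevican-derived Abz/Dnp peptide (25 μM final) in 50 mM HEPES pH 7.5, 100 mM NaCl, 5 mM CaCl2, 0.1% CHAPS, 5% glycerol. Enzyme preincubated with compound before substrate; fluorescence (ex 340/em 420 nm) followed kinetically 40 min at 30 °C.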

[2] = read-out: Agg-1 IC50 (μM) or % Inhibition
[3] = read-out: Agg-2 IC50 (μM) or % Inhibition
[4] = read-out: Agg-2 FRET Median IC50

O=C(NC(Cc1cc(Cl)c2cccnc2c1O)c1cccc(CN2CCCC2)c1)c1ccc(-c2ccccc2)cc1 (stereo not shown) [drawing 65] showed an inhibition at 200 µM (Agg-1; [2]) of 54% and an inhibition at 50 µM [1, 3] of 50%.
COc1ccc(C(NC(=O)COc2ccccc2)c2cc(Cl)c3cccnc3c2O)cc1OCc1ccccc1 (stereo not shown) [N-[[3-(benzyloxy)-4-methoxyphenyl](5-chloro-8-hydroxyquinolin-7-yl)methyl]-2-phenoxyacetamide] showed an inhibition at 7.5 µM (Agg-1; @ 7500 nM, read-out: Agg1 %) of 54% and an IC50 ([1]; read-out: Agg2 IC50) of 1040 nM.
O=C(COc1ccccc1)NC(c1cccc([N+](=O)[O-])c1)c1cc(Cl)c2cccnc2c1O (stereo not shown) [N-[(5-chloro-8-hydroxyquinolin-7-yl)(3-nitrophenyl)methyl]-2-phenoxyacetamide] was tested, and the inhibition at 22 µM (Agg-1; @ 22000 nM, read-out: Agg1 %) was 53%, the IC50 ([1]; read-out: Agg2 IC50) was 1230 nM and the IC50 [1, 4] was 1230 nM and 488 nM.
O=C(CNCc1ccccc1)NC(c1ccccc1)c1cc(Cl)c2cccnc2c1O (stereo not shown) [Example 223, N2-benzyl-N-[(5-chloro-8-hydroxyquinolin-7-yl)(phenyl)methyl]glycinamide] showed an IC50 (Agg-1) greater than 20000 nM, an IC50 ([1]; read-out: Agg2 IC50) of 3750 nM and an IC50 [1, 4] of 3750 nM.
O=C(COc1ccccc1)NC(c1cc(Cl)c2cccnc2c1O)c1cccc2ncccc12 (stereo not shown) [N-[(5-chloro-8-hydroxyquinolin-7-yl)(quinolin-5-yl)methyl]-2-phenoxyacetamide] showed an inhibition at 22 µM (Agg-1; @ 22000 nM, read-out: Agg1 %) of 46%, an IC50 ([1]; read-out: Agg2 IC50) of 3500 nM and an IC50 [1, 4] of 3520 nM.
Work on O=C(COc1ccccc1)NC(c1cccc(Oc2ccccc2)c1)c1cc(Cl)c2cccnc2c1O (stereo not shown) [Example 131, N-[(5-chloro-8-hydroxyquinolin-7-yl)(3-phenoxyphenyl)methyl]-2-phenoxyacetamide] yielded an IC50 (Agg-1) greater than 67000 nM and an IC50 ([1]; read-out: Agg2 IC50) of 4100 nM.
Work on CN(C)c1ccc(C(NC(=O)COc2ccccc2)c2cc(Cl)c3cccnc3c2O)cc1 (stereo not shown) [Example 134, N-{(5-chloro-8-hydroxyquinolin-7-yl)[4-(dimethylamino)phenyl]methyl}-2-phenoxyacetamide] yielded an inhibition at […] (Agg-1; @ 2500 nM, read-out: Agg1 %) of 54% and an IC50 ([1]; read-out: Agg2 IC50) of 1650 nM.
O=C(CNCc1cccc2ccccc12)NC(c1ccccc1)c1cc(Cl)c2cccnc2c1O (stereo not shown) [Example 224, N-[(5-chloro-8-hydroxyquinolin-7-yl)(phenyl)methyl]-N2-(1-naphthylmethyl)glycinamide] showed an IC50 (Agg-1) of 17500 nM, an IC50 ([1]; read-out: Agg2 IC50) of 1560 nM and an IC50 [1, 4] of 1560 nM.
Cc1ccc(-c2cccc(C(Cc3cc(Cl)c4cccnc4c3O)NC(=O)C(C)(C)Oc3ccc(Cl)cc3)c2)s1 (stereo not shown) was tested, and the inhibition at 66.7 µM (Agg-1; [2]) was 47% and the inhibition at 22 µM [1, 3] was 51%.
In the case of O=C(COc1ccccc1)NC(c1ccccc1)c1cc(-n2cccc2)c2cccnc2c1O (stereo not shown) [N-[[8-hydroxy-5-(1H-pyrrol-1-yl)quinolin-7-yl](phenyl)methyl]-2-phenoxyacetamide], the inhibition at 200 µM (Agg-1; @ 200000 nM, read-out: Agg1 %) is reported as 54%, the IC50 ([1]; read-out: Agg2 IC50) is reported as 1640 nM and the IC50 [1, 4] is reported as 1640 nM.
For O=C(COc1ccccc1)NC(c1cc(Cl)c2cccnc2c1O)c1cccc2cccnc12 (stereo not shown) [N-[(5-chloro-8-hydroxyquinolin-7-yl)(quinolin-8-yl)methyl]-2-phenoxyacetamide], the inhibition at 22 µM (Agg-1; @ 22000 nM, read-out: Agg1 %) was 55% and the IC50 ([1]; read-out: Agg2 IC50) was 2200 nM.
Compound O=C(Cc1ccccc1)NC(c1ccccc1Cl)c1cc(Cl)c2cccnc2c1O (stereo not shown) [N-[(5-chloro-8-hydroxyquinolin-7-yl)(2-chlorophenyl)methyl]-2-phenylacetamide] has an inhibition at […] (Agg-1; @ 1200 nM, read-out: Agg1 %) of 29%, an IC50 ([1]; read-out: Agg2 IC50) of 1540 nM and an IC50 [1, 4] of 1540 nM.
For O=C(CCl)NC(c1ccccc1)c1cc(Br)c2cccnc2c1O (stereo not shown) [N-[(5-bromo-8-hydroxyquinolin-7-yl)(phenyl)methyl]-2-chloroacetamide], the IC50 (Agg-1) was 22000 to 67000 nM and the IC50 ([1]; read-out: Agg2 IC50) was 5400 nM.
With O=C(COc1ccccc1)NC(c1cc(Cl)c2cccnc2c1O)c1cccc2[nH]ccc12 (stereo not shown) [N-[(5-chloro-8-hydroxyquinolin-7-yl)(1H-indol-4-yl)methyl]-2-phenoxyacetamide] the inhibition at 0.8 µM (Agg-1; @ 800 nM, read-out: Agg1 %) was 41%, the IC50 ([1]; read-out: Agg2 IC50) was 2100 nM and the IC50 [1, 4] was 2080 nM.
CC(C)(Oc1ccc(Cl)cc1)C(=O)NC(Cc1cc(Cl)c2cccnc2c1O)c1cccc(CN2CCCC2)c1 (stereo not shown) gave an inhibition at 66.7 µM (Agg-1; [2]) of 50% and an inhibition at 22 µM [1, 3] of 49%.
Compound O=C(COc1ccccc1)NC(c1ccc(OCc2ccccc2)cc1)c1cc(Cl)c2cccnc2c1O (stereo not shown) [N-[[4-(benzyloxy)phenyl](5-chloro-8-hydroxyquinolin-7-yl)methyl]-2-phenoxyacetamide] has an IC50 (Agg-1) greater than 67000 nM and an IC50 ([1]; read-out: Agg2 IC50) of 4400 nM.
With O=C(COc1ccccc1)NC(c1cccc(OCc2ccccc2)c1)c1cc(Cl)c2cccnc2c1O (stereo not shown) [N-[[3-(benzyloxy)phenyl](5-chloro-8-hydroxyquinolin-7-yl)methyl]-2-phenoxyacetamide] the inhibition at 22.2 µM (Agg-1; @ 22200 nM, read-out: Agg1 %) was 47% and the inhibition at 3.7 µM ([1]; @ 3700 nM) was 48%.
O=C(NC(Cc1cc(Cl)c2cccnc2c1O)c1ccc(CN2CCOCC2)cc1)c1ccc(-c2ccccc2)cc1 (stereo not shown) was tested, and the inhibition at 22 µM (Agg-1; [2]) was 59% and the inhibition at 22 µM [1, 3] was 50%.
O=C(COc1ccccc1)NC(c1ccc(-c2ccccc2)o1)c1cc(Cl)c2cccnc2c1O (stereo not shown) [N-[(5-chloro-8-hydroxyquinolin-7-yl)(5-phenyl-2-furyl)methyl]-2-phenoxyacetamide] was tested, and the IC50 (Agg-1) was greater than 22000 nM, the “Agg-2 FRET Median PCT INHIB” value [1] was 54% and the IC50 ([1]; read-out: Agg2 IC50) was greater than 5000 nM.
With O=C(COc1ccccc1)NC(c1ccc2c(c1)OCCO2)c1cc(Cl)c2cccnc2c1O (stereo not shown) [N-[(5-chloro-8-hydroxyquinolin-7-yl)(2,3-dihydro-1,4-benzodioxin-6-yl)methyl]-2-phenoxyacetamide] the inhibition at 7.4 µM (Agg-1; read-out: Agg1 %) was 51% and the IC50 ([1]; read-out: Agg2 IC50) was 850 nM.
Work on O=C(Cc1ccccc1)NC(c1ccc(F)cc1)c1cc(Cl)c2cccnc2c1O (stereo not shown) [N-[(5-chloro-8-hydroxyquinolin-7-yl)(4-fluorophenyl)methyl]-2-phenylacetamide] yielded an inhibition at 3.7 µM (Agg-1; @ 3700 nM, read-out: Agg1 %) of 33%, an IC50 ([1]; read-out: Agg2 IC50) of 2140 nM and an IC50 [1, 4] of 2140 nM.
Work on Cc1ccc(Oc2cccc(C(NC(=O)COc3ccccc3)c3cc(Cl)c4cccnc4c3O)c2)cc1 (stereo not shown) [Example 130, N-{(5-chloro-8-hydroxyquinolin-7-yl)[3-(4-methylphenoxy)phenyl]methyl}-2-phenoxyacetamide] yielded an inhibition at 22 µM (Agg-1; @ 22000 nM, read-out: Agg1 %) of 52% and an inhibition at 7.4 µM ([1]; @ 7400 nM) of 58%.
For O=C(COc1ccccc1)NC(c1cc2n(n1)CSC2)c1cc(Cl)c2cccnc2c1O (stereo not shown) [Example 174, N-[(5-chloro-8-hydroxyquinolin-7-yl)(4H-pyrazolo[1,5-c][1,3]thiazol-2-yl)methyl]-2-phenoxyacetamide], the “Agg1 %” value (Agg-1; @ 7000-22000 nM) was 42% @ 7000-22000 and the inhibition at […] ([1]; @ 1900 nM) was 40%.
O=C(COc1ccccc1)NC(c1cc(Cl)c2cccnc2c1O)c1cccc2cc[nH]c12 (stereo not shown) [N-[(5-chloro-8-hydroxyquinolin-7-yl)(1H-indol-7-yl)methyl]-2-phenoxyacetamide] showed an inhibition at 7.4 µM (Agg-1; read-out: Agg1 %) of 48% and an inhibition at […] ([1]; @ 1900 nM) of 69%.
With O=C(NC(c1ccco1)c1cc(Cl)c2cccnc2c1O)OCc1ccccc1 (stereo not shown) [benzyl [(5-chloro-8-hydroxyquinolin-7-yl)(2-furyl)methyl]carbamate] the IC50 (Agg-1) was greater than 20000 nM, the “Agg-2 FRET Median PCT INHIB” value [1] was 33% and the IC50 ([1]; read-out: Agg2 IC50) was greater than 20000 nM.
Compound O=C(COc1ccccc1)NC(c1ccc2c(c1)OCO2)c1cc(Cl)c2cccnc2c1O (stereo not shown) [N-[1,3-benzodioxol-5-yl(5-chloro-8-hydroxyquinolin-7-yl)methyl]-2-phenoxyacetamide] has an IC50 (Agg-1) greater than 22000 nM, an IC50 ([1]; read-out: Agg2 IC50) of 1560 nM and an IC50 [1, 4] of 1560 nM.
For CC(C)c1ccc(C(NC(=O)COc2ccccc2)c2cc(Cl)c3cccnc3c2O)cc1 (stereo not shown) [N-[(5-chloro-8-hydroxyquinolin-7-yl)(4-isopropylphenyl)methyl]-2-phenoxyacetamide], the inhibition at 33 µM (Agg-1; @ 33000 nM, read-out: Agg1 %) was 47% and the inhibition at […] ([1]; @ 2500 nM) was 45%.
CC(C)C(=O)NC(Cc1cc(Cl)c2cccnc2c1O)c1ccc(CN(C)C)o1 (stereo not shown) showed an inhibition at 200 µM (Agg-1; [2]) of 56% and an inhibition at 200 µM [1, 3] of 49%.
